From patent publication US20240052109A1, “POLYSILOXANE VINYLIC MONOMERS AND USES THEREOF” (Alcon Inc., priority 2022, published 2024)

Experiment: Solubility of PDMS vinylic monomer in 1-PrOH:Water mixtures
Type: physicochemical
Details: 50-60 mg sample, stirred at room temperature
Protocol: The solubility of quaternium ammonium containing PDMS vinylic monomer prepared in Example 2 is evaluated in 1-PrOH:Water mixtures. Typically, 50-60 mg of the sample is combined with a selected solvent system and it is stirred/agitated at room temperature. After few minutes compatibility is evaluated. For comparison, the solubilities of three reference materials are also evaluated. The three reference material are: methacryloxypropyl- and n-butyl-terminated polydimiethylsiloxane (D6, Mn=700-800 g/mol) (Ref. 1); methacryloxypropyl- and n-butyl-terminated polydimiethylsiloxane (D9, Mn=900-1,000 g/mol) (Ref. 2); and methyl- and 2-[4-(chloromethyl)phenyl]ethyl-terminated polydimethylsiloxane (Ref. 3).

Measured: Solubility (compatibility) in 1-PrOH:Water

methyl- and 2-[4-(chloromethyl)phenyl]ethyl-terminated polydimethylsiloxane [Ref. 3]
Hazy: 1-PrOH:Water 0:100 | 1-PrOH:Water 20:80 | 1-PrOH:Water 40:60 | 1-PrOH:Water 60:40
Clear: 1-PrOH:Water 80:20 | 1-PrOH:Water 100:0

C=CC(=O)NCCC[N+](C)(C)Cc1ccc(CC[Si](C)(C)O[Si](C)(C)O[Si](C)(C)O[Si](C)(C)O[Si](C)(C)C)cc1 [Example 2]
Hazy: 1-PrOH:Water 0:100 | 1-PrOH:Water 20:80
Clear: 1-PrOH:Water 40:60 | 1-PrOH:Water 60:40 | 1-PrOH:Water 80:20 | 1-PrOH:Water 100:0

methacryloxypropyl- and n-butyl-terminated polydimiethylsiloxane [Ref. 1]
Hazy: 1-PrOH:Water 0:100 | 1-PrOH:Water 20:80 | 1-PrOH:Water 40:60 | 1-PrOH:Water 60:40
Clear: 1-PrOH:Water 80:20 | 1-PrOH:Water 100:0

methacryloxypropyl- and n-butyl-terminated polydimiethylsiloxane [Ref. 2]
Hazy: 1-PrOH:Water 0:100 | 1-PrOH:Water 20:80 | 1-PrOH:Water 40:60 | 1-PrOH:Water 60:40 | 1-PrOH:Water 80:20
Clear: 1-PrOH:Water 100:0
